# Assay results as given in patent publication US20100273757A1, “PYRAZINE DERIVATIVES USEFUL AS ADENOSINE RECEPTOR ANTAGONISTS” (Laboratorios Almirall, S.A., priority 2005, published 2010).
# Biological target: T1, human A2B receptor (Homo sapiens, UniProt P29275)
# T1 construct: host or cells: HEK293 cells stably expressing the receptor; membranes prepared from them
# T1 sequence (P29275 1-332): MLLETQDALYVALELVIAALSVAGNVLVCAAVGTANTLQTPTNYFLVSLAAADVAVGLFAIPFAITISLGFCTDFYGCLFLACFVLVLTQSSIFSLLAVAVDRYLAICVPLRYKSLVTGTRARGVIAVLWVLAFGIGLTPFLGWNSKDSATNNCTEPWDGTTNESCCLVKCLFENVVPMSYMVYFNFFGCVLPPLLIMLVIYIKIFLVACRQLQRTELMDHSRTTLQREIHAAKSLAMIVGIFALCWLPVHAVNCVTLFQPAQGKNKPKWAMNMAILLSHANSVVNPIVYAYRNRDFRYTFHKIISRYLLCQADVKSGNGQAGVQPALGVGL
# Experiment: Adenosine 2B receptor subtype competition radioligand binding assay
# Details: [3H]-DPCPX competition, membranes from HEK293 cells expressing human A2B receptor
# Method: A2B membranes were prepared from HEK293 cells stably expressing the human A2B receptor that were purchased from Euroscreen (ES-013-C). […] At the end of the incubation, samples were transferred to a GF/C filter plates (Milipore MAFCN0B50) pretreated for 15 min. with 250 μl of Tris-HCl 50 mM pH 6.5 (Buffer B). Samples were then filtered 4 times with 250 μl of buffer B. Samples were counted using 30 μl of Hisafe II (Perkin Elmer) in a Trilux counter.
row,Compound,Ki [nM]
1,"Nc1cnc(-c2ccncc2F)c(-c2cccc(F)c2)n1 [Example 3, 6-(3-Fluorophenyl)-5-(3-fluoropyridin-4-yl)pyrazin-2-amine]",4
2,"O=C(Nc1cnc(-c2ccncc2Cl)c(-c2ccccn2)n1)C1CC1 [Example 22, N-[5-(3-Chloropyridin-4-yl)-6-pyridin-2-ylpyrazin-2-yl]cyclopropanecarboxamide]",16
3,"COc1nc(-c2ccncc2)c(-c2ccco2)nc1N [Example 67, 6-(2-Furyl)-3-methoxy-5-pyridin-4-ylpyrazin-2-amine]",9
4,"O=c1[nH]c2nc(-c3ccncc3)c(-c3cccc(F)c3)nc2[nH]1 [Example 76, 5-(3-Fluorophenyl)-6-pyridin-4-yl-1,3-dihydro-2H-imidazo[4,5-b]pyrazin-2-one]",4
5,"COc1ccc(-c2nc(NC(=O)C3CC3)cnc2-c2ccncc2F)cn1 [Example 119, N-[5-(3-Fluoropyridin-4-yl)-6-(6-methoxypyridin-3-yl)pyrazin-2-yl]cyclopropane carboxamide]",3
6,"Fc1cnccc1-c1nc2cc(-c3cccnc3)[nH]c2nc1-c1cccnc1 [Example 149, 2-(3-Fluoropyridin-4-yl)-3,6-dipyridin-3-yl-5H-pyrrolo[2,3-b]pyrazine]",0.9
